Test results taken from ChEMBL document CHEMBL5465560, “Selectivity Literature for EUbOPEN Chemogenomic Library” (2024).
Blank lines part the entries; values can stand above or below the compound they belong to.

Assays:
[1] = target: Phosphatidylinositol 4,5-bisphosphate 3-kinase catalytic subunit gamma isoform (Homo sapiens) (UniProt P48736); test: Selectivity interaction (KinomeScan (DiscoverX)) EUB0000877a PIK3CG; conditions: at 10 µM
[2] = target: Mitogen-activated protein kinase 1 (Homo sapiens, UniProt P28482); test: Selectivity interaction (Kinase panel (literature)) EUB0001199aCl MAPK1; conditions: at 1 µM
Mitogen-activated protein kinase 1, sequence (P28482 whole entry): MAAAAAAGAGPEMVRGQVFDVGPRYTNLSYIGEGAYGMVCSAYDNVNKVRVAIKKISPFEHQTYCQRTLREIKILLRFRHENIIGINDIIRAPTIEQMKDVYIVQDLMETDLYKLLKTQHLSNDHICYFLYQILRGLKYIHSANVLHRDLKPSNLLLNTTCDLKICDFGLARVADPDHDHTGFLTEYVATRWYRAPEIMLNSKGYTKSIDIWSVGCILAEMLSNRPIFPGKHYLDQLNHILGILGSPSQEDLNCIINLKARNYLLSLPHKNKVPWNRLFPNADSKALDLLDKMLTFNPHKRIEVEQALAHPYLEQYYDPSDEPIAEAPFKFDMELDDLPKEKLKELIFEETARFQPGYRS

[3] = target: T1, Mitogen-activated protein kinase kinase kinase kinase 3 (Homo sapiens) (UniProt Q8IVH8); test: Selectivity interaction (KinomeScan (DiscoverX)) EUB0000695a MAP4K3; conditions: at 100 nM
T1 sequence (whole entry): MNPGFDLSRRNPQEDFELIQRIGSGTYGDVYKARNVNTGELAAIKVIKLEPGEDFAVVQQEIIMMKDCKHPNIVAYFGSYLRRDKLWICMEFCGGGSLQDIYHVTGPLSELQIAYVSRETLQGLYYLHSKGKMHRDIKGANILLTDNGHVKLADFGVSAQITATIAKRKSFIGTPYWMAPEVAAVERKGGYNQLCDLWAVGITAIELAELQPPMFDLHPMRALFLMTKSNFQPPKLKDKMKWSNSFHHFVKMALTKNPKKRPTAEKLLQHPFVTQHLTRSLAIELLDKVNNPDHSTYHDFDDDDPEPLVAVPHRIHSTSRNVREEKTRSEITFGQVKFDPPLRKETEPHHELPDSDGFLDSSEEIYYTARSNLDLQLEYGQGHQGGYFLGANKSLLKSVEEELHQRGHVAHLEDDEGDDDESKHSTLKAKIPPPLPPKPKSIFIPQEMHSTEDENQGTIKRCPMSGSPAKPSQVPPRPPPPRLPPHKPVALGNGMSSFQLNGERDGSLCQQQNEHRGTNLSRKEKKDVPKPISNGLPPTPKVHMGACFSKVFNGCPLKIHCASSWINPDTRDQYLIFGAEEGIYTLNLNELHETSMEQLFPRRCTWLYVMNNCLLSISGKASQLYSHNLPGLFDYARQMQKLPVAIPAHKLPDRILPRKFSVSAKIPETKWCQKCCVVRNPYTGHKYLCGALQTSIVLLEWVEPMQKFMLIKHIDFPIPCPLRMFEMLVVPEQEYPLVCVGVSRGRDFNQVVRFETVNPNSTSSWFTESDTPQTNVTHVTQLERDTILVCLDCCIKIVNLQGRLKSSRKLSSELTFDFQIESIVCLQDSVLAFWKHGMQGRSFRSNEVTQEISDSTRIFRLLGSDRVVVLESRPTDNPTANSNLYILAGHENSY

[4] = target: Sodium-dependent noradrenaline transporter (Homo sapiens, UniProt P23975); test: Selectivity interaction (Eurofins CEREP Diversity Profile (receptors and ion channels)) EUB0000279b SLC6A2; conditions: at 10 µM
Sodium-dependent noradrenaline transporter, sequence (P23975 whole entry): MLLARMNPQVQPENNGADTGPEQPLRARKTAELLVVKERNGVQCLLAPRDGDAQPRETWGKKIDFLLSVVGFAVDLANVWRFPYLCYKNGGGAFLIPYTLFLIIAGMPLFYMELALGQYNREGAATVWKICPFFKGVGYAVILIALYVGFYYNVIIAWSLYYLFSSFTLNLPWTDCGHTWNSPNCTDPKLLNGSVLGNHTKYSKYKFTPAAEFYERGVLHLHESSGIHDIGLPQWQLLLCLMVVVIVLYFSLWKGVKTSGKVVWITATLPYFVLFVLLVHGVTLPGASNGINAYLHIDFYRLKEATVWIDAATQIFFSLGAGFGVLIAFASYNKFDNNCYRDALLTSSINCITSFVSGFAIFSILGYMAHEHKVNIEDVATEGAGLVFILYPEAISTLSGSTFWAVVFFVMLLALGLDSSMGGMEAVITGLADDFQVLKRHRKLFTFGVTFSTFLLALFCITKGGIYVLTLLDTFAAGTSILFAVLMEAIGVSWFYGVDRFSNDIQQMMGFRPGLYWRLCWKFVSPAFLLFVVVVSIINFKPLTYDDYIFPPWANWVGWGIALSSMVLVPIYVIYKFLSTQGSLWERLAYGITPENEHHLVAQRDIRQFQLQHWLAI

[5] = target: Serine/threonine-protein kinase Nek4 (Homo sapiens) (UniProt P51957); test: Selectivity interaction (KinomeScan (DiscoverX)) EUB0000229b NEK4; conditions: at 10 µM
Serine/threonine-protein kinase Nek4 (Homo sapiens), sequence (P51957 whole entry, looked up): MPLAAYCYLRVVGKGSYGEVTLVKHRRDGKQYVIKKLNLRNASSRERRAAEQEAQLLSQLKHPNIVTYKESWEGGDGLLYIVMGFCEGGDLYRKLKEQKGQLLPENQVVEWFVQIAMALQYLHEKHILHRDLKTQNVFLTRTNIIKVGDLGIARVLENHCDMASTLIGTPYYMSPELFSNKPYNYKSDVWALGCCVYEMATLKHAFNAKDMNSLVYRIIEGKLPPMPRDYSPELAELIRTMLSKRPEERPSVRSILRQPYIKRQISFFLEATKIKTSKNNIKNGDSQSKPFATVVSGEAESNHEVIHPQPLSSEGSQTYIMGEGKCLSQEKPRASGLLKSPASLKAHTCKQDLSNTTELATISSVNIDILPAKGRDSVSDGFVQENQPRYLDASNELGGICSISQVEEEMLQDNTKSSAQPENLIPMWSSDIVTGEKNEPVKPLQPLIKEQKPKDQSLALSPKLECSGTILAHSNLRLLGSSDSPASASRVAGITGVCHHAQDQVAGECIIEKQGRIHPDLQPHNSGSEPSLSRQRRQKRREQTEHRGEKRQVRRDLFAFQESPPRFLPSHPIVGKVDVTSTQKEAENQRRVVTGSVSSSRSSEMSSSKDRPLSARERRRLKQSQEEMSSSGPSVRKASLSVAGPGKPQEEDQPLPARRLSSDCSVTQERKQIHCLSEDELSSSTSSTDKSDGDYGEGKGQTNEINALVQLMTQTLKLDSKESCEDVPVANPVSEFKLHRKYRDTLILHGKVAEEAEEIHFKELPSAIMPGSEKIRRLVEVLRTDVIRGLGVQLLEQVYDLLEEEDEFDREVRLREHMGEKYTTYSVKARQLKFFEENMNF

[6] = target: Serine/threonine-protein kinase Nek6 (Homo sapiens) (UniProt Q9HC98); test: Selectivity interaction (KinomeScan (DiscoverX)) EUB0001079a NEK6; conditions: at 1 µM
Serine/threonine-protein kinase Nek6 (Homo sapiens), sequence (Q9HC98 whole entry): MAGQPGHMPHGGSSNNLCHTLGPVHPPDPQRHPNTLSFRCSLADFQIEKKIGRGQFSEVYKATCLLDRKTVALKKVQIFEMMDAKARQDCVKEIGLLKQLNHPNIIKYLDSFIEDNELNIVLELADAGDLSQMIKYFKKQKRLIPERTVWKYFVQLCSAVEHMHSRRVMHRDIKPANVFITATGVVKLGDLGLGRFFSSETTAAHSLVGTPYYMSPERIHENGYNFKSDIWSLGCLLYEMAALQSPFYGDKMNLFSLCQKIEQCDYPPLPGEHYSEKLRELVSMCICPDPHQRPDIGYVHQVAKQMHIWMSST

[7] = target: Serine/threonine-protein kinase MARK1 (Homo sapiens) (UniProt Q9P0L2); test: Selectivity interaction (KinomeScan (DiscoverX)) EUB0000045b MARK1
Serine/threonine-protein kinase MARK1 (Homo sapiens), sequence (Q9P0L2 whole entry, looked up): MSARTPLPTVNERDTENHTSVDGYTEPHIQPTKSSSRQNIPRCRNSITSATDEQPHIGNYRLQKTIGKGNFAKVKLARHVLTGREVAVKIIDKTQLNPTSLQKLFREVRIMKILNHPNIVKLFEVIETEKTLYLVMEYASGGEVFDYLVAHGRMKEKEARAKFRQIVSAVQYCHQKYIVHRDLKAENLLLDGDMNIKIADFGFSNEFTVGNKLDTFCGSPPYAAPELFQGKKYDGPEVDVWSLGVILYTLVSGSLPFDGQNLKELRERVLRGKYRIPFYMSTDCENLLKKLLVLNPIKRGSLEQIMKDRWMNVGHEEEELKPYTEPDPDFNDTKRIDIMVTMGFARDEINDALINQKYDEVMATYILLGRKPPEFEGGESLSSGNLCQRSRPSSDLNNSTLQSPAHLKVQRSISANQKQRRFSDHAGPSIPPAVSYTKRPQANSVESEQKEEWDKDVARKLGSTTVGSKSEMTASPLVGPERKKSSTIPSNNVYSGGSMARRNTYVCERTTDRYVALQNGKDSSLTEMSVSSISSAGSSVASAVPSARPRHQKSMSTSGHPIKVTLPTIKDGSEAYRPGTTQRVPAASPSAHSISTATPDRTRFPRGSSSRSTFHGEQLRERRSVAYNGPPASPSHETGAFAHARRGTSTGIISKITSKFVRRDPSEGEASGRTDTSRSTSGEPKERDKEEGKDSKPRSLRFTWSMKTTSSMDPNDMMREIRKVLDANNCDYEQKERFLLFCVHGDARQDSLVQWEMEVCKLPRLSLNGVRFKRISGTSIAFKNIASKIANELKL

[8] = target: T2, Calcium/calmodulin-dependent protein kinase type IV (Homo sapiens) (UniProt Q16566); test: Selectivity interaction (KinomeScan (DiscoverX)) EUB0000045b CAMK4
T2 sequence (whole entry): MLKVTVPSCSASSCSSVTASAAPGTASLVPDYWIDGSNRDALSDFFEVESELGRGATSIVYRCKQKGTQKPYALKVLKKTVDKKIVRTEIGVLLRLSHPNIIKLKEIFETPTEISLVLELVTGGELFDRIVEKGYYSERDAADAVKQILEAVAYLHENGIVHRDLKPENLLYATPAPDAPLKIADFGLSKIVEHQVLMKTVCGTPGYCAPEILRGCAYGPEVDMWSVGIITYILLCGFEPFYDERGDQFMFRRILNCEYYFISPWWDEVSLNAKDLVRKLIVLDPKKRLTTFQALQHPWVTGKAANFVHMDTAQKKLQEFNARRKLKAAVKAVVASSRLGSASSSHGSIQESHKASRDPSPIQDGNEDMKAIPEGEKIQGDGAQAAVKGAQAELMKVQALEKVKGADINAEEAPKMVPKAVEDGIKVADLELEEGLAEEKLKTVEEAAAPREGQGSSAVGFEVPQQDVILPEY

[9] = target: T3, Interleukin-1 receptor-associated kinase 4 (Homo sapiens) (UniProt Q9NWZ3); test: Selectivity interaction (KinomeScan (DiscoverX)) EUB0000045b IRAK4
T3 sequence (whole entry): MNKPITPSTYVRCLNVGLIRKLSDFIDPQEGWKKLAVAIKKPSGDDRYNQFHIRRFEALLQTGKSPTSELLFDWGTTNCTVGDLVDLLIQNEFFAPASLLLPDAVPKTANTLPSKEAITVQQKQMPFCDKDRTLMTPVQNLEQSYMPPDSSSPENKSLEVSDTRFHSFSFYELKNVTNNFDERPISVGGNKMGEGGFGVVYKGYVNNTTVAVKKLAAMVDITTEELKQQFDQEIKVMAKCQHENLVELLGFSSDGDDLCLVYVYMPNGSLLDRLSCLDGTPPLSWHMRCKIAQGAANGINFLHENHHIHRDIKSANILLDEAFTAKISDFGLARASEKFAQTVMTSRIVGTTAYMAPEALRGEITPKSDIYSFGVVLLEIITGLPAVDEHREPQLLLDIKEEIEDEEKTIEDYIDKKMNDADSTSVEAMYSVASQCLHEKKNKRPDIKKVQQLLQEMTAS

[10] = target: Proto-oncogene tyrosine-protein kinase ROS (Homo sapiens) (UniProt P08922); test: Selectivity interaction (KinomeScan (DiscoverX)) EUB0000655a ROS1; conditions: at 10 µM
[11] = target: Atypical kinase COQ8A, mitochondrial (Homo sapiens, UniProt Q8NI60); test: Selectivity interaction (KinomeScan (DiscoverX)) EUB0000655a ADCK3; conditions: at 10 µM
Atypical kinase COQ8A, mitochondrial, sequence (Q8NI60 163-647 limits assumed): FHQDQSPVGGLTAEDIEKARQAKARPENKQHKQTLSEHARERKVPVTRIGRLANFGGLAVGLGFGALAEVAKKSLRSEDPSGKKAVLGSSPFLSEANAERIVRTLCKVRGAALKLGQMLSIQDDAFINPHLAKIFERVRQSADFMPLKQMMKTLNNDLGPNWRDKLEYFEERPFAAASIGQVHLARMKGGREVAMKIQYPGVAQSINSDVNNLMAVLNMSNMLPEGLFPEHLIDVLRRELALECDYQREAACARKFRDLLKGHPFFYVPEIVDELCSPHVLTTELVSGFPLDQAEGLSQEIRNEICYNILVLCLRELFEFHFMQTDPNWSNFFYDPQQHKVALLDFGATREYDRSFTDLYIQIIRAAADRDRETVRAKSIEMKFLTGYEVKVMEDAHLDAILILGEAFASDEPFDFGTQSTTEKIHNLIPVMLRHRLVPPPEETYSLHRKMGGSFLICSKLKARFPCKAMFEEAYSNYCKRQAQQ

[12] = target: Cyclin-dependent kinase 7 (Homo sapiens, UniProt P50613); test: Selectivity interaction (KinomeScan (DiscoverX)) EUB0000666a CDK7; conditions: at 10 µM
Cyclin-dependent kinase 7, sequence (P50613 whole entry): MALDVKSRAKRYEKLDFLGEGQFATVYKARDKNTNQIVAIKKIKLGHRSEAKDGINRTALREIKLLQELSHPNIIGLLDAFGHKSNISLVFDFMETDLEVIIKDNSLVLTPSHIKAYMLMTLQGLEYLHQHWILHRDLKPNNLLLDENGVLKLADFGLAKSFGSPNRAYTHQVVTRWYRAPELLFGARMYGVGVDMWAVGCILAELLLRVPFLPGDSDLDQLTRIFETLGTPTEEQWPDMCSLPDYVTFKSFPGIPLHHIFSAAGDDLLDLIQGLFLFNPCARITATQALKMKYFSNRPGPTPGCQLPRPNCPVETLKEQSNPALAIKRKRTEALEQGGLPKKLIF

[13] = target: T2, Calcium/calmodulin-dependent protein kinase type IV (Homo sapiens); test: Selectivity interaction (Kinase panel (DSF assay)) EUB0001558a CAMK4

Phosphatidylinositol 4,5-bisphosphate 3-kinase catalytic subunit gamma isoform (Homo sapiens), sequence (P48736 whole entry, looked up, canonical isoform): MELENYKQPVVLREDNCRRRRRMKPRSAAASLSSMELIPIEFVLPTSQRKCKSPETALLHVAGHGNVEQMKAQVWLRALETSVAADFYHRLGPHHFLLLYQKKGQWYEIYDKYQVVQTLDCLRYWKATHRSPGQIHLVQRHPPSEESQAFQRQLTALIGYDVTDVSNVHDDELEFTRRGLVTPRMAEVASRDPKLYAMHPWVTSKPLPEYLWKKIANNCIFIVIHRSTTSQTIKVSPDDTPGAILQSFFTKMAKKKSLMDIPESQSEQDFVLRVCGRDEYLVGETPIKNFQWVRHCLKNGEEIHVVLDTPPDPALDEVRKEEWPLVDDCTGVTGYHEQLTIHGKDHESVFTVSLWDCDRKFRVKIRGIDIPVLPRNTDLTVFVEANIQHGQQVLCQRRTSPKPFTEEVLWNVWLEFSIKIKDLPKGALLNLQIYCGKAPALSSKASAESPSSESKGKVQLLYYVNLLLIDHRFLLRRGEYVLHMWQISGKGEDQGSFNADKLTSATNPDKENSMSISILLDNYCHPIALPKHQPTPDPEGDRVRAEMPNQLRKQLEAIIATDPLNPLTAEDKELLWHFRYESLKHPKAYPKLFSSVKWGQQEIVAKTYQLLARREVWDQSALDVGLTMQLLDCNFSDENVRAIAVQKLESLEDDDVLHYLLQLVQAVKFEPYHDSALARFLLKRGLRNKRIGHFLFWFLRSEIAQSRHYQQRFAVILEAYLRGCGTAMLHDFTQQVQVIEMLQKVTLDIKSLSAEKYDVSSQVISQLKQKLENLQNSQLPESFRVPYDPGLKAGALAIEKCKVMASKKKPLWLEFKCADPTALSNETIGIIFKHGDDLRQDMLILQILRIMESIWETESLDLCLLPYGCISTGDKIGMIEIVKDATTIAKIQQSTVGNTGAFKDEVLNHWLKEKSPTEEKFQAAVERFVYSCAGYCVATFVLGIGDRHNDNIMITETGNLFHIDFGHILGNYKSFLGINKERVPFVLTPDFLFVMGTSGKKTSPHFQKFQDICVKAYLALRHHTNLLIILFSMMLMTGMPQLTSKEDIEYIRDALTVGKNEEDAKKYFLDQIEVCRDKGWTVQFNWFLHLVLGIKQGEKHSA

% of inhibition [1]: 98%
Compound: CCC(=O)N1CC[C@H](Nc2ncnc3c2CN(c2cnc(OC)c(C(F)(F)F)c2)CC3)C1 [LENIOLISIB]

% of inhibition [2]: 2%
Compound: CN1Cc2nccc(-c3cn(C)nc3-c3ccc(F)cc3)c2C1=O

Compound: Cc1cc(F)c(C(=O)Nc2cccc(-c3nncn3C(C)C)n2)cc1-n1cnc(C2CC2)c1
% of control [3]: 70%

% of control [4]: 90%
Compound: CC(=O)c1cc(-c2ccccc2OCC2CC2)c2ncccn12

Compound: COc1cc(N(C)c2ccnc3ccc(C(F)(F)F)cc23)cc(OC)c1OC
% binding [5]: 82%

Compound: Nc1cnc(N2CCc3cc(S(=O)(=O)Nc4c(F)cc(Cl)cc4F)cc(N4CCCC4=O)c32)nc1 [TP-020n]
% of control [6]: 100%

Compound: C=CC(=O)Nc1cc(-n2c(=O)ccc3cnc4ccc(-c5ccc(NS(C)(=O)=O)cc5)cc4c32)ccc1C
% of control ([7]; at 1 µM): 97% | % of control ([7]; at 10 µM): 89% | % of control ([8]; at 1 µM): 100% | % of control ([8]; at 10 µM): 72% | % of control ([9]; at 1 µM): 84% | % of control ([9]; at 10 µM): 100%

Compound: CN(C)CCOc1ccc(-c2nc(-c3ccncc3)c(-c3ccc4c(c3)CC/C4=N\O)[nH]2)cc1
% of control [10]: 88% | % of control [11]: 7%

Compound: O=C(NOC[C@H](O)CO)c1ccc(F)c(F)c1Nc1ccc(I)cc1F
% of control [12]: 83%

Compound: CC(C)(O)[C@H](F)CN1Cc2cc(NC(=O)c3cnn4cccnc34)c(N3CCOCC3)cc2C1=O
dTM [13]: 1 K
